The results in this text go back to patent publication US20090054392A1, “NAPHTHYLPYRIMIDINE, NAPHTHYLPYRAZINE AND NAPHTHYLPYRIDAZINE ANALOGS AND THEIR USE AS AGONISTS OF THE WNT-BETA-CATENIN CELLULAR MESSAGING SYSTEM” (Wyeth, priority 2007, published 2009).

For the data set, the system named is Dkk1-LRP5-TCF-Luciferase. In words: Functional Dkk1-LRP5-TCF-Luciferase Assay in U2OS Cells. To be noted: for fold induction at 20 µM / fold induction at 2 µM / EC50: Homo sapiens, U2OS; for fold induction at 20 µM: read-out: C = TCF ACTIVITY/DMSO CONTROL Fold induction @ 20.0 uM, 20.0 uM compound; for fold induction at 2 µM: read-out: B = TCF ACTIVITY/DMSO CONTROL Fold induction @ 2.0 uM, 2.0 uM compound; for A = MAX FOLD Induction/DMSO CONTROL: maximum fold induction over DMSO control.

`Cc1ccc(S(=O)(=O)N2CC[C@@H](Nc3nccc(-c4ccc5ccccc5c4)n3)C2)cc1` [N-{(3R)-1-[(4-methylphenyl)sulfonyl]pyrrolidin-3-yl}-4-(2-naphthyl)pyrimidin-2-amine]: the fold induction at 20 µM is 1.58.

Turning to `CC(=O)N(CC(F)(F)F)[C@H]1CCN(c2nccc(-c3ccc4ccccc4c3)n2)C1` [N-{(3S)-1-[4-(2-naphthyl)pyrimidin-2-yl]pyrrolidin-3-yl}-N-(2,2,2-trifluoroethyl)acetamide], the fold induction at 2 µM was determined as 1.23.

As usually defined, the EC50 is the concentration needed to bring the measured effect to its halfway point. A lower EC50 goes with a more potent agent. In the case of `CC(=O)N[C@H]1CCN(c2nccc(-c3ccc4ccccc4c3)n2)C1` [N-{(3S)-1-[4-(2-naphthyl)pyrimidin-2-yl]pyrrolidin-3-yl}acetamide], the EC50 is 6.88 µM, the fold induction at 2 µM came to 1.02, the fold induction at 20 µM was 1.5 and the “A = MAX FOLD Induction/DMSO CONTROL” value came out at 4.375 fold.

Consider `O=C(N[C@H]1CCN(c2nccc(-c3ccc4ccccc4c3)n2)C1)c1ccccc1` [N-{(3S)-1-[4-(2-naphthyl)pyrimidin-2-yl]pyrrolidin-3-yl}benzamide], for which the fold induction at 2 µM turned out to be 1.13 and the fold induction at 20 µM came out at 0.64.

`CS(=O)(=O)N[C@H]1CCN(c2nccc(-c3ccc4ccccc4c3)n2)C1` [N-{(3S)-1-[4-(2-naphthyl)pyrimidin-2-yl]pyrrolidin-3-yl}methanesulfonamide]: a half-maximal response (EC50) required 13.8 µM, the fold induction at 2 µM is 0.68, the fold induction at 20 µM turned out to be 1.56 and the “A = MAX FOLD Induction/DMSO CONTROL” value is 1.420 fold.

For `O=C(N[C@H]1CCN(c2nccc(-c3ccc4ccccc4c3)n2)C1)N1CCOCC1` [N-{(3S)-1-[4-(2-naphthyl)pyrimidin-2-yl]pyrrolidin-3-yl}morpholine-4-carboxamide], the fold induction at 2 µM was 0.93 and the fold induction at 20 µM worked out at 1.72.

Regarding `O=C(N[C@H]1CCN(c2nccc(-c3ccc4ccccc4c3)n2)C1)N1CCCC1` [N-{(3S)-1-[4-(2-naphthyl)pyrimidin-2-yl]pyrrolidin-3-yl}pyrrolidine-1-carboxamide], the fold induction at 2 µM was found to be 1.89.

On to `NC(=O)N[C@H]1CCN(c2nccc(-c3ccc4ccccc4c3)n2)C1` [N-{(3S)-1-[4-(2-naphthyl)pyrimidin-2-yl]pyrrolidin-3-yl}urea], for which the fold induction at 20 µM turned out to be 1.47.

Regarding `Cc1ccc(S(=O)(=O)N2CC[C@H](Nc3nccc(-c4ccc5ccccc5c4)n3)C2)cc1` [N-{(3S)-1-[(4-methylphenyl)sulfonyl]pyrrolidin-3-yl}-4-(2-naphthyl)pyrimidin-2-amine], the fold induction at 2 µM came out at 1.22 and the fold induction at 20 µM is 1.01.

As for `CS(=O)(=O)N1CC(CNc2nccc(-c3ccc4ccccc4c3)n2)C1` [N-{[1-(methylsulfonyl)azetidin-3-yl]methyl}-4-(2-naphthyl)pyrimidin-2-amine], the fold induction at 20 µM amounted to 1.52.

As to `CS(=O)(=O)N1CCC(CNc2nccc(-c3ccc4ccccc4c3)n2)CC1` [N-{[1-(methylsulfonyl)piperidin-4-yl]methyl}-4-(2-naphthyl)pyrimidin-2-amine], the fold induction at 2 µM stood at 1.54 and the fold induction at 20 µM was 1.35.

Consider `O=C(NCCC1CCN(c2nccc(-c3ccc4ccccc4c3)n2)CC1)OCc1ccccc1` [benzyl (2-{1-[4-(2-naphthyl)pyrimidin-2-yl]piperidin-4-yl}ethyl)carbamate], for which the fold induction at 2 µM was determined as 0.86 and the fold induction at 20 µM was found to be 1.49.

In the case of `CC(C)(C)OC(=O)/N=C(/NCC1CCN(c2nccc(-c3ccc4ccccc4c3)n2)CC1)NC(=O)OC(C)(C)C` [di-tert-butyl {(Z)-[({1-[4-(2-naphthyl)pyrimidin-2-yl]piperidin-4-yl}methyl)amino]methylylidene}biscarbamate], the fold induction at 2 µM was 0.94 and the fold induction at 20 µM turned out to be 1.35.

On to `CCOC(=O)N(CCN1CCN(c2nccc(-c3ccc4ccccc4c3)n2)CC1)C(=O)OCC` [diethyl (2-{4-[4-(2-naphthyl)pyrimidin-2-yl]piperazin-1-yl}ethyl)imidodicarbonate], for which the fold induction at 2 µM came to 1.72.

In the case of `CCOC(=O)C1CCN(c2nccc(-c3ccc4ccccc4c3)n2)CC1` [ethyl 1-[4-(2-naphthyl)pyrimidin-2-yl]piperidine-4-carboxylate], the fold induction at 2 µM worked out at 1.64, the fold induction at 20 µM was 1.91 and the “A = MAX FOLD Induction/DMSO CONTROL” value was 1.950 fold.

For the compound `CCOC(=O)N1CCCN(c2nccc(-c3ccc4ccccc4c3)n2)CC1` [ethyl 4-[4-(2-naphthyl)pyrimidin-2-yl]-1,4-diazepane-1-carboxylate], the EC50 was determined as 30 µM, the fold induction at 20 µM was found to be 2.49 and the “A = MAX FOLD Induction/DMSO CONTROL” value was 1.790 fold.

In the case of `CCOC(=O)N1CC[C@@H](Nc2nccc(-c3ccc4ccccc4c3)n2)C1` [ethyl (3R)-3-{[4-(2-naphthyl)pyrimidin-2-yl]amino}pyrrolidine-1-carboxylate], the fold induction at 20 µM stood at 1.3.

Turning to `CCOC(=O)N1CC[C@H](Nc2nccc(-c3ccc4ccccc4c3)n2)C1` [ethyl (3S)-3-{[4-(2-naphthyl)pyrimidin-2-yl]amino}pyrrolidine-1-carboxylate], the fold induction at 2 µM was 1.28 and the fold induction at 20 µM amounted to 1.54.

`CCOC(=O)CC1CCN(c2nccc(-c3ccc4ccccc4c3)n2)CC1` [ethyl {1-[4-(2-naphthyl)pyrimidin-2-yl]piperidin-4-yl}acetate]: the fold induction at 2 µM came out at 1.26 and the fold induction at 20 µM was 1.06.

As to `CCOC(=O)N[C@@H]1CCN(c2nccc(-c3ccc4ccccc4c3)n2)C1` [ethyl {(3R)-1-[4-(2-naphthyl)pyrimidin-2-yl]pyrrolidin-3-yl}carbamate], the fold induction at 2 µM is 1.21 and the fold induction at 20 µM was 0.69.

In the case of `CCOC(=O)N[C@H]1CCN(c2nccc(-c3ccc4ccccc4c3)n2)C1` [ethyl {(3S)-1-[4-(2-naphthyl)pyrimidin-2-yl]pyrrolidin-3-yl}carbamate], the fold induction at 2 µM came out at 1.02 and the fold induction at 20 µM stood at 1.94.

As for `COC(=O)C1CCN(c2nccc(-c3ccc4ccccc4c3)n2)CC1` [methyl 1-[4-(2-naphthyl)pyrimidin-2-yl]piperidine-4-carboxylate], the fold induction at 20 µM is 1.39.

For the compound `COC(=O)N1CCCN(c2nccc(-c3ccc4ccccc4c3)n2)CC1` [methyl 4-[4-(2-naphthyl)pyrimidin-2-yl]-1,4-diazepane-1-carboxylate], the EC50 was 30 µM, the fold induction at 20 µM was 1.88 and the “A = MAX FOLD Induction/DMSO CONTROL” value came to 1.930 fold.

Take `COC(=O)N1CCC(N(C)c2nccc(-c3ccc4ccccc4c3)n2)CC1` [methyl 4-{methyl[4-(2-naphthyl)pyrimidin-2-yl]amino}piperidine-1-carboxylate]: the fold induction at 2 µM came out at 1.43 and the fold induction at 20 µM came to 1.47.

Regarding `COC(=O)NCCC1CCN(c2nccc(-c3ccc4ccccc4c3)n2)CC1` [methyl (2-{1-[4-(2-naphthyl)pyrimidin-2-yl]piperidin-4-yl}ethyl)carbamate], the fold induction at 2 µM stood at 1.39 and the fold induction at 20 µM is 0.89.

On to `COC(=O)[C@H](NC(=O)OC(C)(C)C)C1CCN(c2nccc(-c3ccc4ccccc4c3)n2)CC1` [methyl (2R)-[(tert-butoxycarbonyl)amino]{1-[4-(2-naphthyl)pyrimidin-2-yl]piperidin-4-yl}acetate], for which the fold induction at 20 µM was 0.77.

On to `COC(=O)[C@H](N)C1CCN(c2nccc(-c3ccc4ccccc4c3)n2)CC1` [methyl (2R)-amino{1-[4-(2-naphthyl)pyrimidin-2-yl]piperidin-4-yl}acetate], for which the concentration giving a half-maximal response (EC50) stood at 8.86 µM, the fold induction at 2 µM was 1.68, the fold induction at 20 µM amounted to 1.05 and the “A = MAX FOLD Induction/DMSO CONTROL” value is 3.200 fold.

For `COC(=O)[C@@H](NC(=O)OC(C)(C)C)C1CCN(c2nccc(-c3ccc4ccccc4c3)n2)CC1` [methyl (2S)-[(tert-butoxycarbonyl)amino]{1-[4-(2-naphthyl)pyrimidin-2-yl]piperidin-4-yl}acetate], the fold induction at 20 µM was 0.7.

In the case of `COC(=O)[C@@H](N)C1CCN(c2nccc(-c3ccc4ccccc4c3)n2)CC1` [methyl (2S)-amino{1-[4-(2-naphthyl)pyrimidin-2-yl]piperidin-4-yl}acetate], the fold induction at 20 µM worked out at 0.57 and the “A = MAX FOLD Induction/DMSO CONTROL” value is 1.590 fold.

Turning to `COC(=O)N1CC[C@@H](Nc2nccc(-c3ccc4ccccc4c3)n2)C1` [methyl (3R)-3-{[4-(2-naphthyl)pyrimidin-2-yl]amino}pyrrolidine-1-carboxylate], the fold induction at 20 µM amounted to 2.35 and the “A = MAX FOLD Induction/DMSO CONTROL” value worked out at 1.360 fold.

As for `COC(=O)N1CC[C@H](Nc2nccc(-c3ccc4ccccc4c3)n2)C1` [methyl (3S)-3-{[4-(2-naphthyl)pyrimidin-2-yl]amino}pyrrolidine-1-carboxylate], the EC50 came to 2.77 µM, the fold induction at 2 µM was found to be 1.65, the fold induction at 20 µM is 2.12 and the “A = MAX FOLD Induction/DMSO CONTROL” value is listed as 2.725 fold.

Turning to `COC(=O)N[C@H]1CC[C@H](Nc2nccc(-c3ccc4ccccc4c3)n2)CC1` [methyl (trans-4-{[4-(2-naphthyl)pyrimidin-2-yl]amino}cyclohexyl)carbamate], the EC50 turned out to be 12.3 µM, the fold induction at 2 µM was 2.53, the fold induction at 20 µM stood at 1.66 and the “A = MAX FOLD Induction/DMSO CONTROL” value is 2.490 fold.

Regarding `COC(=O)NCC1CN(c2nccc(-c3ccc4ccccc4c3)n2)C1` [methyl ({1-[4-(2-naphthyl)pyrimidin-2-yl]azetidin-3-yl}methyl)carbamate], the fold induction at 2 µM came to 1.28 and the fold induction at 20 µM amounted to 1.08.

Regarding `COC(=O)NCC1CCN(c2nccc(-c3ccc4ccccc4c3)n2)CC1` [methyl ({1-[4-(2-naphthyl)pyrimidin-2-yl]piperidin-4-yl}methyl)carbamate], the fold induction at 2 µM turned out to be 1.21 and the fold induction at 20 µM was 1.59.
